Measured values: US8969387B2, “Pyrrole compounds” (Takeda Pharmaceutical Company Limited, priority 2008, dated 2015)
Where a name gives a salt, the structure may show the parent alone.

Test system: Caspase-3/7 activity in HepG2 cells
Experiment: Caspase-3/7 activity test
Type: cell-based, human
Conditions: HepG2, 100 μM, one day; relative to Staurosporine maximum (100%) and no test reagent (0%)
Method: Human liver cancer-derived cell line HepG2 (ATCC No. HB-8065) was passaged using Dulbecco's Modified Eagle medium (DMEM; Invitrogen) containing 10% fetal bovine serum (FBS; TRACE SCIENTIFIC LTD.), 1 mmol/L sodium pyruvate (Invitrogen), 2 mmol/L L-glutamine (Invitrogen), 50 IU/mL penicillin (Invitrogen) and 50 μg/mL streptomycin (Invitrogen) at 5% CO2, 37° C. The test reagent was prepared with DMSO to 10 mM, and further diluted with DMEM medium containing 0.5% FBS, 1 mmol/L sodium pyruvate, 2 mmol/L L-glutamine, 50 IU/mL penicillin and 50 μg/mL streptomycin to a final concentration of DMSO of 0.1%. HepG2 (2×10^4 cells/well) was cultured on a 96 well white plate (Costar) with the test reagent at 5% CO2, 37° C. After culture for one day, the intracellular ATP content was measured using ATPLite™ (PerkinElmer Life Sciences). The results are shown in Table 4 (n23, average value±SD) as a relative value (%) to control (without addition of drug).
The Caspase-3/7 activity in the cells cultured for one day by a method similar to that in Experimental Example 3 was measured using Caspase-Glo 3/7 Assay (Promega). The results are shown in Table 4 (n≧3, average value SD) as relative activity (%) of each reagent based on the maximum value of Caspase-3/7 activity when exposed to Staurosporine (100%), and the activity without addition of a test reagent (0%).

Caspase-3/7 activity (%, 100 μM) [%] | Compound
−1.1 | CNCc1cn(S(=O)(=O)c2cc(C)ccn2)c(-c2cccnc2F)c1F [Example 2, 1-{4-Fluoro-5-(2-fluoropyridin-3-yl)-1-[(4-methylpyridin-2-yl)sulfonyl]-1H-pyrrol-3-yl}-N-methylmethanamine hydrochloride]
2.4 | CNCc1cn(S(=O)(=O)c2ccc(C)nc2)c(-c2cccnc2F)c1F [Example 8, 1-{4-Fluoro-5-(2-fluoropyridin-3-yl)-1-[(6-methylpyridin-3-yl)sulfonyl]-1H-pyrrol-3-yl}-N-methylmethanamine 0.5 fumarate]
−0.5 | CNCc1cn(S(=O)(=O)c2ccc(F)cn2)c(-c2cccnc2F)c1F [Example 3, 1-{4-Fluoro-5-(2-fluoropyridin-3-yl)-1-[(5-fluoropyridin-2-yl)sulfonyl]-1H-pyrrol-3-yl}-N-methylmethanamine hydrochloride]
0.3 | CNCc1cn(S(=O)(=O)c2cncc(F)c2)c(-c2cccnc2F)c1F [Example 5, 1-{4-Fluoro-5-(2-fluoropyridin-3-yl)-1-[(5-fluoropyridin-3-yl)sulfonyl]-1H-pyrrol-3-yl}-N-methylmethanamine hydrochloride]
−0.6 | CNCc1cn(S(=O)(=O)c2cc(OC)ccn2)c(-c2cccnc2F)c1F [Example 4, 1-{4-Fluoro-5-(2-fluoropyridin-3-yl)-1-[(4-methoxypyridin-2-yl)sulfonyl]-1H-pyrrol-3-yl}-N-methylmethanamine hydrochloride]
0.9 | CNCc1cn(S(=O)(=O)c2ccc(OC)cn2)c(-c2cccnc2F)c1F [Example 10, 1-{4-Fluoro-5-(2-fluoropyridin-3-yl)-1-[(5-methoxypyridin-2-yl)sulfonyl]-1H-pyrrol-3-yl}-N-methylmethanamine hydrochloride]
